How the values were obtained:
[1] = tested on: Rat; assay: concentration in kidney after dosing; conditions: oral
[2] = tested on: Rat; assay: concentration in plasma after dosing
[3] = tested on: Rat; assay: concentration in brain after dosing; conditions: oral
[4] = tested on: Rat; assay: concentration in liver after dosing; conditions: oral

O=C(O)C(F)(F)C(F)(F)C(F)(F)C(F)(F)C(F)(F)F [Perfluorohexanoic Acid]
dosed: Perfluorohexanoic Acid, 80 mg/kg
Conditions | concentration in brain, [3] [ng/g] | concentration in kidney, [1] [ng/g] | concentration in liver, [4] [ng/g]
0.5 h, Female, Harlan Sprague Dawley | 1210 | 55900 | 32800
0.5 h, Male, Harlan Sprague Dawley | 2270 | 207000 | 105000
1 h, Female, Harlan Sprague Dawley | 1770 | 98400 | 42200
1 h, Male, Harlan Sprague Dawley | 2670 | 74100 | 87200
3 h, Female, Harlan Sprague Dawley | 703 | 45000 | 8510
3 h, Male, Harlan Sprague Dawley | 1170 | 44300 | 29600
3 h, Male, Harlan Sprague Dawley - this seems too small | 799 | 56500 | 36100
6 h, Female, Harlan Sprague Dawley | – | 14200 | 5010
6 h, Male, Harlan Sprague Dawley | 495 | 10900 | 9650
12 h, Female, Harlan Sprague Dawley | – | 663 | –
12 h, Male, Harlan Sprague Dawley | – | 2880 | 3140

concentration in plasma [ng/mL], [2], dosed: Perfluorohexanoic Acid
Conditions | 40 mg/kg | 80 mg/kg
0.25 h, iv, Male, F344 | 21800 | –
0.25 h, oral, Male, Harlan Sprague Dawley | 27900 | 92000
0.5 h, iv, Female, Harlan Sprague-Dawley | 6320 | –
0.5 h, iv, Male, F344 | 26100 | –
0.5 h, oral, Male, Harlan Sprague Dawley | 64700 | 151000
0.75 h, iv, Female, Harlan Sprague-Dawley | 1990 | –
0.75 h, iv, Male, F344 | 12600 | –
0.75 h, oral, Male, Harlan Sprague Dawley | 55100 | 110000
1 h, iv, Female, Harlan Sprague-Dawley | 327 | –
1 h, iv, Male, F344 | 9120 | –
1 h, oral, Male, Harlan Sprague Dawley | 48300 | 127000
1.5 h, iv, Male, F344 | 7580 | –
3 h, iv, Male, F344 | 3740 | –
3 h, oral, Male, Harlan Sprague Dawley | 34400 | 60100
3 h, oral, Male, Harlan Sprague Dawley - this seems too small | – | 59500
5 min, iv, Male, F344 | 22900 | –
5 min, oral, Male, Harlan Sprague Dawley | 14600 | 59900
6 h, iv, Male, F344 | 3840 | –
6 h, oral, Male, Harlan Sprague Dawley | 18300 | 27700
9 h, oral, Male, Harlan Sprague Dawley | 3710 | 3460
12 h, iv, Male, F344 | 57.2 | –
12 h, oral, Male, Harlan Sprague Dawley | 2040 | –
24 h, iv, Male, F344 | 68.1 | –
24 h, oral, Male, Harlan Sprague Dawley | 222 | 627

O=C(O)CCC(F)(F)C(F)(F)C(F)(F)C(F)(F)C(F)(F)C(F)(F)C(F)(F)F [Fluorotelomer acid 7+3]
Conditions | concentration in brain, [3] [ng/g] | concentration in kidney, [1] [ng/g] | concentration in liver, [4] [ng/g]
0.5 h, dosed: Fluorotelomer alcohol 8+2, 24 mg/kg, Male, Harlan Sprague Dawley | 109 | 224 | 300
0.5 h, dosed: Fluorotelomer alcohol 8+2, 24 mg/kg, Male, Harlan Sprague Dawley - this seems too small | 47.2 | 129 | 195
0.5 h, dosed: Fluorotelomer alcohol 8+2, 80 mg/kg, Female, Harlan Sprague Dawley | 139 | 418 | 1070
1 h, dosed: Fluorotelomer alcohol 8+2, 24 mg/kg, Male, Harlan Sprague Dawley | 130 | 291 | 784
1 h, dosed: Fluorotelomer alcohol 8+2, 80 mg/kg, Female, Harlan Sprague Dawley | 391 | 883 | 2270
3 h, dosed: Fluorotelomer alcohol 8+2, 24 mg/kg, Male, Harlan Sprague Dawley | 425 | 1640 | 3250
3 h, dosed: Fluorotelomer alcohol 8+2, 80 mg/kg, Female, Harlan Sprague Dawley | 870 | 3250 | 8230
6 h, dosed: Fluorotelomer alcohol 8+2, 24 mg/kg, Male, Harlan Sprague Dawley | 365 | 1200 | 3160
6 h, dosed: Fluorotelomer alcohol 8+2, 80 mg/kg, Female, Harlan Sprague Dawley | 1250 | 6470 | 8110
12 h, dosed: Fluorotelomer alcohol 8+2, 24 mg/kg, Male, Harlan Sprague Dawley | 222 | 930 | 2590
12 h, dosed: Fluorotelomer alcohol 8+2, 80 mg/kg, Female, Harlan Sprague Dawley | 632 | 3150 | 9470

[2]
Conditions | concentration in plasma [ng/mL]
0.25 h, dosed: 678-39-7, 12 mg/kg, iv, Male, F344 | 45.5
0.25 h, dosed: 678-39-7, 40 mg/kg, iv, Male, F344 | 80.9
0.25 h, dosed: Fluorotelomer alcohol 8+2, 12 mg/kg, oral, Male, Harlan Sprague Dawley | 21.6
0.5 h, dosed: 678-39-7, 12 mg/kg, iv, Male, F344 | 157
0.5 h, dosed: 678-39-7, 40 mg/kg, iv, Female, Harlan Sprague-Dawley | 400
0.5 h, dosed: 678-39-7, 40 mg/kg, iv, Male, F344 | 640
0.5 h, dosed: Fluorotelomer alcohol 8+2, 12 mg/kg, oral, Male, Harlan Sprague Dawley | 123
0.75 h, dosed: 678-39-7, 12 mg/kg, iv, Male, F344 | 242
0.75 h, dosed: 678-39-7, 40 mg/kg, iv, Female, Harlan Sprague-Dawley | 773
0.75 h, dosed: Fluorotelomer alcohol 8+2, 12 mg/kg, oral, Male, Harlan Sprague Dawley | 405
1 h, dosed: 678-39-7, 12 mg/kg, iv, Male, F344 | 455
1 h, dosed: 678-39-7, 40 mg/kg, iv, Female, Harlan Sprague-Dawley | 1490
1 h, dosed: Fluorotelomer alcohol 8+2, 12 mg/kg, oral, Male, Harlan Sprague Dawley | 317
3 h, dosed: 678-39-7, 12 mg/kg, iv, Male, F344 | 700
3 h, dosed: 678-39-7, 40 mg/kg, iv, Male, F344 | 2420
3 h, dosed: Fluorotelomer alcohol 8+2, 12 mg/kg, oral, Male, Harlan Sprague Dawley | 794
5 min, dosed: 678-39-7, 12 mg/kg, iv, Male, F344 | 8.32
5 min, dosed: 678-39-7, 40 mg/kg, iv, Male, F344 | 21.4
6 h, dosed: 678-39-7, 12 mg/kg, iv, Male, F344 | 762
6 h, dosed: 678-39-7, 40 mg/kg, iv, Male, F344 | 1630
6 h, dosed: Fluorotelomer alcohol 8+2, 12 mg/kg, oral, Male, Harlan Sprague Dawley | 619
9 h, dosed: 678-39-7, 12 mg/kg, iv, Male, F344 | 110
9 h, dosed: 678-39-7, 40 mg/kg, iv, Female, Harlan Sprague-Dawley | 366
9 h, dosed: 678-39-7, 40 mg/kg, iv, Male, F344 | 481
9 h, dosed: Fluorotelomer alcohol 8+2, 12 mg/kg, oral, Male, Harlan Sprague Dawley | 143
12 h, dosed: 678-39-7, 12 mg/kg, iv, Male, F344 | 63.3
12 h, dosed: 678-39-7, 40 mg/kg, iv, Female, Harlan Sprague-Dawley | 130
12 h, dosed: Fluorotelomer alcohol 8+2, 12 mg/kg, oral, Male, Harlan Sprague Dawley | 159
24 h, dosed: 678-39-7, 12 mg/kg, iv, Male, F344 | 98.6
24 h, dosed: 678-39-7, 40 mg/kg, iv, Female, Harlan Sprague-Dawley | 498
24 h, dosed: Fluorotelomer alcohol 8+2, 12 mg/kg, oral, Male, Harlan Sprague Dawley | 189
48 h, dosed: Fluorotelomer alcohol 8+2, 12 mg/kg, oral, Male, Harlan Sprague Dawley | 112
192 h, dosed: 678-39-7, 12 mg/kg, iv, Male, F344 | 22.5
192 h, dosed: 678-39-7, 40 mg/kg, iv, Male, F344 | 134
192 h, dosed: Fluorotelomer alcohol 8+2, 12 mg/kg, oral, Male, Harlan Sprague Dawley | 42.1
192 h, dosed: Fluorotelomer alcohol 8+2, 24 mg/kg, oral, Male, Harlan Sprague Dawley | 53

— EPA's CvTdb concentration-time database
